Results reported in patent publication US7511077B2, “Diamine calcium channel blockers” (Neuromed Pharmaceuticals Ltd., priority 2005, dated 2009).
Read-outs that look alike come from different tables or passages of the source.

Assays:
[1] = molecular target: T1, rat brain N-type calcium channel subunits (α1B+α2δ+β1b cDNA subunits) (Rattus norvegicus, UniProt Q02294); experiment: N-type calcium channel block, whole cell patch clamp in HEK 293 cells; format: cell-based; settings: holding potential −80 mV to +10 mV
T1 construct: expressed in transfected cells; host or cells: HEK 293
Procedure: N-type calcium channel blocking activity was assayed in human embryonic kidney cells, HEK 293, stably transfected with the rat brain N-type calcium channel subunits (α1B+α2δ+β1b cDNA subunits). Alternatively, N-type calcium channels (α1B+α2δ+β1b cDNA subunits), L-type channels (α1C+α2δ+β1b cDNA subunits) and P/Q-type channels (α1A+α2δ+β1b cDNA subunits) were transiently expressed in HEK 293 cells. Briefly, cells were cultured in Dulbecco's modified eagle medium (DMEM) supplemented with 10% fetal bovine serum, 200 U/ml penicillin and 0.2 mg/ml streptomycin at 37° C. with 5% CO2. At 85% confluency cells were split with 0.25% trypsin/1 mM EDTA and plated at 10% confluency on glass coverslips. At 12 hours the medium was replaced and the cells transiently transfected using a standard calcium phosphate protocol and the appropriate calcium channel cDNA's. Fresh DMEM was supplied and the cells transferred to 28° C./5% CO2. Cells were incubated for 1 to 2 days prior to whole cell recording.
Whole cell patch clamp experiments were performed using an Axopatch 200B amplifier (Axon Instruments, Burlingame, Calif.) linked to a personal computer equipped with pCLAMP software. The external and internal recording solutions contained, respectively, 5 mM BaCl2, 10 mM MgCl2, 10 mM HEPES, 40 mM TEACl, 10 mM glucose, 87.5 mM CsCl (pH 7.2) and 108 mM CsMS, 4 mM MgCl2, 9 mM EGTA, 9 mM HEPES (pH 7.2). Currents were typically elicited from a holding potential of −80 mV to +10 mV using Clampex software (Axon Instruments). Typically, currents were first elicited with low frequency stimulation (0.067 Hz) and allowed to stabilize prior to application of the compounds. The compounds were then applied during the low frequency pulse trains for two to three minutes to assess tonic block, and subsequently the pulse frequency was increased to 0.2 Hz to assess frequency dependent block. Data were analyzed using Clampfit (Axon Instruments) and SigmaPlot 4.0 (Jandel Scientific).

[2] = molecular target: T2, human α1G T-type channels (Homo sapiens, UniProt O43497); experiment: T-type calcium channel block, patch clamp in HEK cell lines; format: cell-based
T2 construct: expressed in transfected cells; host or cells: HEK cell lines
Procedure: Standard patch-clamp techniques were employed to identify blockers of T-type currents. Briefly, previously described HEK cell lines stably expressing human α1G T-type channels were used for all the recordings (passage #: 4-20, 37° C., 5% CO2). To obtain T-type currents, plastic dishes containing semi-confluent cells were positioned on the stage of a ZEISS AXIOVERT S100 microscope after replacing the culture medium with external solution (see below). Whole-cell patches were obtained using pipettes (borosilicate glass with filament, O.D.: 1.5 mm, I.D.: 0.86 mm, 10 cm length), fabricated on a SUTTER P-97 puller with resistance values of ˜5 MΩ (see below for internal solution).
T-type currents were reliably obtained by using two voltage protocols: • (1) “non-inactivating”, and (2) “inactivation”
In the non-inactivating protocol, the holding potential is set at −110 mV and with a pre-pulse at −100 mV for 1 second prior to the test pulse at −40 mV for 50 ms. In the inactivation protocol, the pre-pulse is at approximately −85 mV for 1 second, which inactivates about 15% of the T-type channels.
Test compounds were dissolved in external solution, 0.1-0.01% DMSO. After ˜10 min rest, they were applied by gravity close to the cell using a WPI microfil tubing. The “non-inactivated” pre-pulse was used to examine the resting block of a compound. The “inactivated” protocol was employed to study voltage-dependent block. However, the initial data shown below were mainly obtained using the non-inactivated protocol only. IC50 values are shown for various compounds of the invention in Table 5.

[3] = low frequency stimulation 0.067 Hz (tonic block), read-out: IC50 @ 0.067 Hz
[4] = pulse frequency 0.2 Hz (frequency dependent block), read-out: IC50 @ 0.2 Hz
[5] = non-inactivating protocol, pre-pulse −100 mV (resting block), read-out: IC50 @ −100 mV
[6] = −80 mV (inactivation protocol, voltage-dependent block), read-out: IC50 @ −80 mV

T2 sequence (O43497 whole entry): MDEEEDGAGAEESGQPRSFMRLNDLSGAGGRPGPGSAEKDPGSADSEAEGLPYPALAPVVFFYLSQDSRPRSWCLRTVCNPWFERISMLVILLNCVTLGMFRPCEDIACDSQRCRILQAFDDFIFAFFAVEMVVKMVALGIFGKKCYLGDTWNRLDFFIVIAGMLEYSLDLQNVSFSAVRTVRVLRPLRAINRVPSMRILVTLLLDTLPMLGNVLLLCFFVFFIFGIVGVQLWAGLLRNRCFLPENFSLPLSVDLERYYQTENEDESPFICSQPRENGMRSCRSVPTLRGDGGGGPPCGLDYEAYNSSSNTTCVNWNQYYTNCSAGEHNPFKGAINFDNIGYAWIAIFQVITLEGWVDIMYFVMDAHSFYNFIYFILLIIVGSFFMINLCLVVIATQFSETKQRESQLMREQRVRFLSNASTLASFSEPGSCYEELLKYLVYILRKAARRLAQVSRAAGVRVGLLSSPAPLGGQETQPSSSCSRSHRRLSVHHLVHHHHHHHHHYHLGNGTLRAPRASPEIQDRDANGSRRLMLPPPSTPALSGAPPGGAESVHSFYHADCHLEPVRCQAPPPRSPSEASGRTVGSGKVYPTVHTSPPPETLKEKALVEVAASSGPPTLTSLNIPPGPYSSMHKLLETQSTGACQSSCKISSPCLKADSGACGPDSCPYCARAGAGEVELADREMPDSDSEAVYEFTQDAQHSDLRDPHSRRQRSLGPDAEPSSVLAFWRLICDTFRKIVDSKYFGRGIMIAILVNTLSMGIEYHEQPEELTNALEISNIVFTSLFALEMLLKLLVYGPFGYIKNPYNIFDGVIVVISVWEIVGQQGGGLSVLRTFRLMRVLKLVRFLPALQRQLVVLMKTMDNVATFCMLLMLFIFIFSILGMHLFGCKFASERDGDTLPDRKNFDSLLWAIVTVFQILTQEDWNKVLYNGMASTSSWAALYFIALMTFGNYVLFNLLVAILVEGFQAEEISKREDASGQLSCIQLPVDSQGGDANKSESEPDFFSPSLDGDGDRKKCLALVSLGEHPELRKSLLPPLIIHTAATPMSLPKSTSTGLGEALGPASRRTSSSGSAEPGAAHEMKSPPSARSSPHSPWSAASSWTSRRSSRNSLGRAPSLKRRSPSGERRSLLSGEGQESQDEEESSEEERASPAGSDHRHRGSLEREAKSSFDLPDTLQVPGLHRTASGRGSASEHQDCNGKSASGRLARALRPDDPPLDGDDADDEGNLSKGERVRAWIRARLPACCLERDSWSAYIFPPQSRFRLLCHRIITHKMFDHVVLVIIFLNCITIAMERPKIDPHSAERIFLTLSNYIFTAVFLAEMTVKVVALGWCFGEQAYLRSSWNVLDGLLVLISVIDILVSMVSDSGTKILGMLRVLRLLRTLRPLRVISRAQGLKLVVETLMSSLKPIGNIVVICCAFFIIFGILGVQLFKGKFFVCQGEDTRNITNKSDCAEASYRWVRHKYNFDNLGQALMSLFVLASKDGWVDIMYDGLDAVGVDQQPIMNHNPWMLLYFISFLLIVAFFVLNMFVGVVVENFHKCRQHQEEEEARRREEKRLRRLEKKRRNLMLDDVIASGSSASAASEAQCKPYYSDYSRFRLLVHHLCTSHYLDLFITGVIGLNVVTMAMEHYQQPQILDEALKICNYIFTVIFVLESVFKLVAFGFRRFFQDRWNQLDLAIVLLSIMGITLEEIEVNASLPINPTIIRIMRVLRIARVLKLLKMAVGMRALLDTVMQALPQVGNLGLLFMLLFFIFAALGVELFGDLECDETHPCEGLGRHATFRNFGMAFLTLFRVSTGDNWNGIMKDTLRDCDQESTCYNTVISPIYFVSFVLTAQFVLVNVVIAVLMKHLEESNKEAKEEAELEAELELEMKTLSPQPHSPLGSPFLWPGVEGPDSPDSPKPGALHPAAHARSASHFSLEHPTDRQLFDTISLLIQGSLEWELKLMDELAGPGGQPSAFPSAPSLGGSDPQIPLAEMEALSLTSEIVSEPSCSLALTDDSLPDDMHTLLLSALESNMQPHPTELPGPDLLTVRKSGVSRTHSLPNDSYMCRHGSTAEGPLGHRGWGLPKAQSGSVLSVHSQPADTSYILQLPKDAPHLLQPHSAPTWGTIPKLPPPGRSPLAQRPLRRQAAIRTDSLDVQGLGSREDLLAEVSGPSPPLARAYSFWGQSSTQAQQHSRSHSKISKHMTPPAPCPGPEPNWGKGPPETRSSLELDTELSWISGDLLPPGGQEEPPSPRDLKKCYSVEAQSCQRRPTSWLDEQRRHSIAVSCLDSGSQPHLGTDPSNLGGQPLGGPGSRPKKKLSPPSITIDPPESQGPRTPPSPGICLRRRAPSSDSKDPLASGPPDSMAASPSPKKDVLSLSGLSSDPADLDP
T1 sequence (Q02294 whole entry): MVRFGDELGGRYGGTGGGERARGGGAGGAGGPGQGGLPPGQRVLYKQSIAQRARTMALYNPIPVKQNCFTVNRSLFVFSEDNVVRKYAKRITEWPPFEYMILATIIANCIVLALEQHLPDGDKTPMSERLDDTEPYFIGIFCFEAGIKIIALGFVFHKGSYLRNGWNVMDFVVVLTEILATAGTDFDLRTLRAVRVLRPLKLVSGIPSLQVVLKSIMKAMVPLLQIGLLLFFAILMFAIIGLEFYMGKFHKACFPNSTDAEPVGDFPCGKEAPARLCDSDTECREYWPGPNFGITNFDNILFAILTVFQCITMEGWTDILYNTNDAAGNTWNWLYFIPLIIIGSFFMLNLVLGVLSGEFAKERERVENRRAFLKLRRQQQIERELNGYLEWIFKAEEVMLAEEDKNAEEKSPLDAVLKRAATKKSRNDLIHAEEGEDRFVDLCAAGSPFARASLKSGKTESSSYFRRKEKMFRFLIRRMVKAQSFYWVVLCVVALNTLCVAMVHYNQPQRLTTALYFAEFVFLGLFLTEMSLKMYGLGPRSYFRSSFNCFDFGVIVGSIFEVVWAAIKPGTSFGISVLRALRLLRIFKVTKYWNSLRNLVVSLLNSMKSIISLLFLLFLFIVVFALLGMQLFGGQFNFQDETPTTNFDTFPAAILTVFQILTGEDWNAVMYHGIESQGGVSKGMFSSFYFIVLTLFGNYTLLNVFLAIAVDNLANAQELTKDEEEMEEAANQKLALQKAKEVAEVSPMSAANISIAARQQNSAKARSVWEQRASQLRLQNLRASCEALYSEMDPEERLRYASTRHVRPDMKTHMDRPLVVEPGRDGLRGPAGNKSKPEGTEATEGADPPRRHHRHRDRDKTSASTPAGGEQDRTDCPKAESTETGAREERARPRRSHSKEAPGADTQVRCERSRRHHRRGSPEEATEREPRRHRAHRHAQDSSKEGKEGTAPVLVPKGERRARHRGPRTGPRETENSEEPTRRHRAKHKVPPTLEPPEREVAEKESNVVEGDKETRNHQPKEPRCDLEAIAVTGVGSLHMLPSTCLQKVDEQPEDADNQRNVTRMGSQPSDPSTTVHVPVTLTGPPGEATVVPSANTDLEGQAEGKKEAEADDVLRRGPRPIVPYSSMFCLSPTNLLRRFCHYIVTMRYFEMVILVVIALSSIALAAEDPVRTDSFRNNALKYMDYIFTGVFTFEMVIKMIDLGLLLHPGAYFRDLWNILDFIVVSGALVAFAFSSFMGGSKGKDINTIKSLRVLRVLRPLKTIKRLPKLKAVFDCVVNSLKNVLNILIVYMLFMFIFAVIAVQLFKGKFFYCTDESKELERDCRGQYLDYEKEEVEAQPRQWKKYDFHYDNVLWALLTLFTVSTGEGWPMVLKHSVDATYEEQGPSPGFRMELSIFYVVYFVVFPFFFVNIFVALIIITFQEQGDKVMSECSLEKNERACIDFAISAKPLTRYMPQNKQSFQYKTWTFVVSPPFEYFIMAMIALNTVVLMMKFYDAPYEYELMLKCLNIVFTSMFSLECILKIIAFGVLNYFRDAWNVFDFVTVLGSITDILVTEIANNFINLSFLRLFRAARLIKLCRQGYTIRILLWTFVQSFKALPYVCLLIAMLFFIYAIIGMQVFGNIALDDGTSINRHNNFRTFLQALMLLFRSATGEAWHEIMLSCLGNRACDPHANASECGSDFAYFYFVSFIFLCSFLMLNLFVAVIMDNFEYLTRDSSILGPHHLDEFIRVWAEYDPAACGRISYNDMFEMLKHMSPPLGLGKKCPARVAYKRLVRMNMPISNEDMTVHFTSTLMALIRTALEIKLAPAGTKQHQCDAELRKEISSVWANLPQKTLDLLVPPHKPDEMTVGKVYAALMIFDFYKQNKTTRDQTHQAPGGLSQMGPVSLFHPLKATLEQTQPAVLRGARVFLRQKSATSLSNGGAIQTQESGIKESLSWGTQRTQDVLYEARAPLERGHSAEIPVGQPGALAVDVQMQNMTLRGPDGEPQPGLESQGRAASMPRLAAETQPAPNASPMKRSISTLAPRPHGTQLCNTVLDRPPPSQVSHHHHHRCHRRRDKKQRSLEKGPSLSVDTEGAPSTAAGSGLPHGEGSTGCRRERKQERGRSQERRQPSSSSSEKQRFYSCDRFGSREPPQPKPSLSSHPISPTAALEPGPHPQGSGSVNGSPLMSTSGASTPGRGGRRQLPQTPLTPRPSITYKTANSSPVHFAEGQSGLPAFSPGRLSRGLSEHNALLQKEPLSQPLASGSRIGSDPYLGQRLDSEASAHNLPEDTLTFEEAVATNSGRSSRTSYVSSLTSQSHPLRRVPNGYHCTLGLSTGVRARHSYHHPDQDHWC

Compound | IC50 [1, 3] | IC50 [1, 4] | IC50 [2, 5] | IC50 [2, 6]
O=C(CC(c1ccccc1)c1ccccc1)NC/C=C/CN(Cc1ccncc1)Cc1ccncc1 [Compound P21, N-[(E)-4-(Bis-pyridin-4-ylmethyl-amino)-but-2-enyl]-3,3-diphenyl-propionamide] | 514 nM | 278 nM | 423 nM | 163 nM
O=C(CCCCC(c1ccc(F)cc1)c1ccc(F)cc1)NC/C=C/CNC(=O)c1ccc(Cl)cc1 [Compound P18, N-{(E)-4-[6,6-Bis-(4-fluoro-phenyl)-hexanoylamino]-but-2-enyl}-4-chloro-benzamide] | 809 nM | 305 nM | 149 nM | 39 nM
O=C(CCCCC(c1ccc(F)cc1)c1ccc(F)cc1)NC/C=C/CNC(=O)COc1ccc(Cl)cc1 [Compound P16, 6,6-Bis-(4-fluoro-phenyl)-hexanoic acid{(E)-4-[2-(4-chloro-phenoxy)-acetylamino]-but-2-enyl}-amide] | 52 nM | 15 nM | 26 nM | 7 nM
CC(C)c1ccc(C(=O)NCC#CCNC(=O)CCCCC(c2ccc(F)cc2)c2ccc(F)cc2)cc1 [Compound P25, N-{4-[6,6-Bis-(4-fluoro-phenyl)-hexanoylamino]-but-2-ynyl}-4-isopropyl-benzamide] | 770 nM | 760 nM | 1000 nM | 424 nM
CC(C)c1ccc(C(=O)NC/C=C\CNC(=O)CCCCC(c2ccc(F)cc2)c2ccc(F)cc2)cc1 [Compound P7, N-{(Z)-4-[6,6-Bis-(4-fluoro-phenyl)-hexanoylamino]-but-2-enyl}-4-isopropyl-benzamide] | 97 nM | 54 nM | 196 nM | 56 nM
Cc1ccc(C(=O)NC/C=C/CNC(=O)CCCCC(c2ccc(F)cc2)c2ccc(F)cc2)cc1 [Compound P19, N-{(E)-4-[6,6-Bis-(4-fluoro-phenyl)-hexanoylamino]-but-2-enyl}-4-methyl-benzamide] | 182 nM | 132 nM | 22 nM | 9 nM
O=C(CC(c1ccccc1)c1ccccc1)NCC#CCN(Cc1cccnc1)Cc1cccnc1 [Compound P31, N-[4-(Bis-pyridin-3-ylmethyl-amino)-but-2-ynyl]-3,3-diphenyl-propionamide] | 420 nM | 420 nM | 94 nM | 27 nM
COc1cc(C(=O)NC/C=C/CNC(=O)CCCCC(c2ccc(F)cc2)c2ccc(F)cc2)cc(OC)c1OC [Compound P11, N-{(E)-4-[6,6-Bis-(4-fluoro-phenyl)-hexanoylamino]-but-2-enyl}-3,4,5-trimethoxy-benzamide] | 331 nM | 196 nM | 155 nM | 51 nM
O=C(CC(c1ccccc1)c1ccccc1)NCC#CCN(Cc1ccncc1)Cc1ccncc1 [Compound P30, N-[4-(Bis-pyridin-4-ylmethyl-amino)-but-2-ynyl]-3,3-diphenyl-propionamide] | 340 nM | 330 nM | 82 nM | 21 nM
O=C(CCCCC(c1ccc(F)cc1)c1ccc(F)cc1)NC/C=C/CNC(=O)c1ccc(F)cc1 [Compound P20, N-{(E)-4-[6,6-Bis-(4-fluoro-phenyl)-hexanoylamino]-but-2-enyl}-4-fluoro-benzamide] | 188 nM | 134 nM | 126 nM | 43 nM
CC(C)(C)c1cc(C(=O)NC/C=C/CNC(=O)CCCCC(c2ccc(F)cc2)c2ccc(F)cc2)cc(C(C)(C)C)c1O [Compound P13, N-{(E)-4-[6,6-Bis-(4-fluoro-phenyl)-hexanoylamino]-but-2-enyl}-3,5-di-tert-butyl-4-hydroxy-benzamide] | 790 nM | 540 nM |  | 
CC(C)c1ccc(C(=O)NC/C=C/CNC(=O)CCCCC(c2ccc(F)cc2)c2ccc(F)cc2)cc1 [Compound P17, N-{(E)-4-[6,6-Bis-(4-fluoro-phenyl)-hexanoylamino]-but-2-enyl}-4-isopropyl-benzamide] | 598 nM | 266 nM | 7 nM | 3 nM
COc1c(C(C)(C)C)cc(C(=O)NC/C=C/CNC(=O)CCCCC(c2ccc(F)cc2)c2ccc(F)cc2)cc1C(C)(C)C [Compound P12, N-{(E)-4-[6,6-Bis-(4-fluoro-phenyl)-hexanoylamino]-but-2-enyl}-3,5-di-tert-butyl-4-methoxy-benzamide] | 220 nM | 146 nM | 112 nM | 34 nM
COc1cc(C(=O)NC/C=C\CNC(=O)CCCCC(c2ccc(F)cc2)c2ccc(F)cc2)cc(OC)c1OC [Compound P1, N-{(Z)-4-[6,6-Bis-(4-fluoro-phenyl)-hexanoylamino]-but-2-enyl}-3,4,5-trimethoxy-benzamide] | 230 nM | 190 nM |  | 
CC(C)(C)c1ccc(C(=O)NC/C=C/CNC(=O)CCCCC(c2ccc(F)cc2)c2ccc(F)cc2)cc1 [Compound P14, N-{(E)-4-[6,6-Bis-(4-fluoro-phenyl)-hexanoylamino]-but-2-enyl}-4-tert-butyl-benzamide] | 510 nM | 380 nM |  | 
CC(C)(C)c1ccc(C(=O)NCCCCNC(=O)CCCCC(c2ccc(F)cc2)c2ccc(F)cc2)cc1 [Compound P34, N-{4-[6,6-Bis-(4-fluoro-phenyl)-hexanoylamino]-butyl}-4-tert-butyl-benzamide] | 291 nM | 165 nM | 177 nM | 141 nM
COc1cc(C(=O)NCC#CCNC(=O)CCCCC(c2ccc(F)cc2)c2ccc(F)cc2)cc(OC)c1OC [Compound P22, N-{4-[6,6-Bis-(4-fluoro-phenyl)-hexanoylamino]-but-2-ynyl}-3,4,5-trimethoxy-benzamide] | 237 nM | 139 nM | 358 nM | 78 nM
CC(C)(C)c1cc(C(=O)NC/C=C\CNC(=O)CCCCC(c2ccc(F)cc2)c2ccc(F)cc2)cc(C(C)(C)C)c1O [Compound P3, N-{(Z)-4-[6,6-Bis-(4-fluoro-phenyl)-hexanoylamino]-but-2-enyl}-3,5-di-tert-butyl-4-hydroxy-benzamide] | 470 nM | 270 nM |  | 
COc1c(C(C)(C)C)cc(C(=O)NC/C=C\CNC(=O)CCCCC(c2ccc(F)cc2)c2ccc(F)cc2)cc1C(C)(C)C [Compound P2, N-{(Z)-4-[6,6-Bis-(4-fluoro-phenyl)-hexanoylamino]-but-2-enyl}-3,5-di-tert-butyl-4-methoxy-benzamide] | 430 nM | 310 nM |  | 
O=C(CCCCC(c1ccc(F)cc1)c1ccc(F)cc1)NCCCCNC(=O)COc1ccc(Cl)cc1 [Compound P36, 6,6-Bis-(4-fluoro-phenyl)-hexanoic acid{4-[2-(4-chloro-phenoxy)-acetylamino]-butyl}-amide] | 39 nM | 10 nM | 63 nM | 29 nM
